According to US20190202877A1, “DERMASEPTIN-TYPE AND PISCIDIN-TYPE ANTIMICROBIAL PEPTIDES” (THE REGENTS OF THE UNIVERSITY OF COLORADO, a body corporate, priority 2014, published 2019):
Values after ≈ are worked out from the molar mass of the structure shown. Where two headings read alike, the source gives them in different places.

Columns and labels:
[1] = system: methicillin resistant Staph. aureus (MRSA); assay type: cell-based, Staphylococcus aureus; conditions: for MIC: MH medium, 37° C., 24 h; for MIC GM, MRSA: geometric mean of MIC from 8 different isolates of MRSA
Experimental: (§1) MICs were determined by a standard microtiter dilution method in Mueller Hinton (MH) medium. Briefly, cells were grown overnight at 37° C. in MH broth and were diluted in the same medium. Serial dilutions of the peptides were added to the microtiter plates in a volume of 50 μl, followed by the addition of 50 μl of bacteria to give a final inoculum of 5×10^5 colony-forming units (CFU)/mL. The plates were incubated at 37° C. for 24 h, and the MICs were determined as the lowest peptide concentration that inhibited growth.
(§2) Various peptides of the invention were tested for antimicrobial activity as described in Example 1. The antimicrobial activity of these peptides was similarly tested against Gram-positive organisms, including Staphylococcus aureus.

[2] = system: methicillin sensitive Staph. aureus (MSSA); assay type: cell-based, Staphylococcus aureus; conditions: for MIC: MH medium, 37° C., 24 h; for MIC GM, MSSA: geometric mean of MIC from 12 different isolates of MSSA
Experimental: as §1, §2

human red blood cells = conditions: for Fold improvement in HC50: compared to D-Piscidin 1 or D-Dermaseptin S4, 18 hours
Experimental: Peptide samples (concentrations determined by amino acid analysis) were added to 1% human erythrocytes in phosphate-buffered saline (100 mM NaCl, 80 mM Na2HPO4, 20 mM NaH2PO4, pH 7.4) and the reaction mixtures were incubated at 37° C. for 18 h in microtiter plates. Two-fold serial dilutions of the peptide samples were carried out. This determination was made by withdrawing aliquots from the hemolysis assays and removing unlysed erythrocytes by centrifugation (800×g). Hemoglobin release was determined spectrophotometrically at 570 nm. The control for 100% hemolysis was a sample of erythrocytes treated with water or 0.1% Triton-X 100. The control for no release of hemoglobin was a sample of 1% erythrocytes without any peptide added. […] The hemolytic activity was determined as the peptide concentration that caused 50% hemolysis of erythrocytes after 18 h (HC50). HC50 as determined from a plot of percent lysis versus peptide concentration (μM). The inventors also determined the hemolytic activity after 1 hour at 37° C.

Row | Structure (SMILES) | MIC ([1]; MRSA strain M21742 (nose)) | MIC ([1]; MRSA strain M21756 (nose)) | MIC ([1]; MRSA strain M22111 (ear)) | MIC ([1]; MRSA strain M22130) | MIC ([1]; MRSA strain M22224 (leg)) | MIC ([1]; MRSA strain M22354) | MIC ([1]; MRSA strain M22360 (labia)) | MIC ([1]; MRSA strain M22424 (arm)) | MIC GM, MRSA [1] | MIC ([2]; MSSA strain BL7429) | MIC ([2]; MSSA strain M21913) | MIC ([2]; MSSA strain M21935) | MIC ([2]; MSSA strain M21991) | MIC ([2]; MSSA strain M22075) | MIC ([2]; MSSA strain M22097) | MIC ([2]; MSSA strain M22111) | MIC ([2]; MSSA strain M22274) | MIC ([2]; MSSA strain M22287) | MIC ([2]; MSSA strain M22300) | Fold improvement in HC50 (human red blood cells) | other results
1 | CC[C@@H](C)[C@@H](NC(=O)CNC(=O)[C@@H](CCCNC(=N)N)NC(=O)[C@@H](Cc1ccccc1)NC(=O)[C@H](NC(=O)[C@@H](Cc1c[nH]cn1)NC(=O)[C@@H](Cc1c[nH]cn1)NC(=O)[C@@H](Cc1ccccc1)NC(=O)[C@H](N)Cc1ccccc1)[C@H](C)CC)C(=O)N[C@@H](C(=O)N[C@H](Cc1c[nH]cn1)C(=O)N[C@@H](C(=O)NCC(=O)N[C@H](CCCCN)C(=O)N[C@@H](C(=O)N[C@@H](C(=O)N[C@H](Cc1c[nH]cn1)C(=O)N[C@H](CCCNC(=N)N)C(=O)N[C@H](CC(C)C)C(=O)N[C@@H](C(=O)N[C@@H](C(=O)NCC(N)=O)[C@H](C)O)C(C)C)[C@H](C)CC)[C@H](C)O)C(C)C)C(C)C [D-Piscidin 1, reference compound] | 3.0 µM (≈ 7.71 µg/mL) | 3.0 µM (≈ 7.71 µg/mL) | 3.0 µM (≈ 7.71 µg/mL) | 3.0 µM (≈ 7.71 µg/mL) | 3.0 µM (≈ 7.71 µg/mL) | 3.0 µM (≈ 7.71 µg/mL) | 1.5 µM (≈ 3.86 µg/mL) | 3.0 µM (≈ 7.71 µg/mL) | 2.8 µM (≈ 7.2 µg/mL) | 3.0 µM (≈ 7.71 µg/mL) | 3.0 µM (≈ 7.71 µg/mL) | 3.0 µM (≈ 7.71 µg/mL) | 6.1 µM (≈ 15.7 µg/mL) | 3.0 µM (≈ 7.71 µg/mL) | 6.1 µM (≈ 15.7 µg/mL) | 1.5 µM (≈ 3.86 µg/mL) | 3.0 µM (≈ 7.71 µg/mL) | 3.0 µM (≈ 7.71 µg/mL) | 3.0 µM (≈ 7.71 µg/mL) | 1.0 fold | MIC ([2]; MSSA strain M22312): 6.1 µM (≈ 15.7 µg/mL); MIC ([2]; MSSA strain M22315): 3.0 µM (≈ 7.71 µg/mL); MIC GM, MSSA [2]: 3.4 µM (≈ 8.74 µg/mL)
2 | CC[C@@H](C)[C@@H](NC(=O)CNC(=O)[C@@H](CCCNC(=N)N)NC(=O)[C@@H](Cc1ccccc1)NC(=O)[C@H](NC(=O)[C@@H](Cc1c[nH]cn1)NC(=O)[C@@H](Cc1c[nH]cn1)NC(=O)[C@@H](Cc1ccccc1)NC(=O)[C@H](N)Cc1ccccc1)[C@H](C)CC)C(=O)N[C@@H](C(=O)N[C@H](Cc1c[nH]cn1)C(=O)N[C@H](CCCCN)C(=O)NCC(=O)N[C@H](CCCCN)C(=O)N[C@@H](C(=O)N[C@@H](C(=O)N[C@H](Cc1c[nH]cn1)C(=O)N[C@H](CCCNC(=N)N)C(=O)N[C@H](CC(C)C)C(=O)N[C@@H](C(=O)N[C@@H](C(=O)NCC(N)=O)[C@H](C)O)C(C)C)[C@H](C)CC)[C@H](C)O)C(C)C [D-Piscidin 1 V12K] | 385 µM (≈ 1000 µg/mL) | 385 µM (≈ 1000 µg/mL) | 96.1 µM (≈ 250 µg/mL) | 96.1 µM (≈ 250 µg/mL) | 96.1 µM (≈ 250 µg/mL) | 96.1 µM (≈ 250 µg/mL) | 3.0 µM (≈ 7.8 µg/mL) | 769 µM (≈ 2000 µg/mL) | 114 µM (≈ 296 µg/mL) | 385 µM (≈ 1000 µg/mL) | 769 µM (≈ 2000 µg/mL) | 192 µM (≈ 499 µg/mL) | 769 µM (≈ 2000 µg/mL) | 385 µM (≈ 1000 µg/mL) | 385 µM (≈ 1000 µg/mL) | 6.0 µM (≈ 15.6 µg/mL) | 769 µM (≈ 2000 µg/mL) | 192 µM (≈ 499 µg/mL) | 24.0 µM (≈ 62.4 µg/mL) | 19 fold | MIC ([2]; MSSA strain M22312): 769 µM (≈ 2000 µg/mL); MIC ([2]; MSSA strain M22315): 192 µM (≈ 499 µg/mL); MIC GM, MSSA [2]: 229 µM (≈ 595 µg/mL)
3 | CC[C@@H](C)[C@@H](NC(=O)CNC(=O)[C@@H](CCCNC(=N)N)NC(=O)[C@@H](Cc1ccccc1)NC(=O)[C@H](NC(=O)[C@@H](Cc1c[nH]cn1)NC(=O)[C@@H](Cc1c[nH]cn1)NC(=O)[C@@H](Cc1ccccc1)NC(=O)[C@H](N)Cc1ccccc1)[C@H](C)CC)C(=O)N[C@@H](C(=O)N[C@H](Cc1c[nH]cn1)C(=O)N[C@@H](C(=O)N[C@H](CCCCN)C(=O)N[C@H](CCCCN)C(=O)N[C@@H](C(=O)N[C@@H](C(=O)N[C@H](Cc1c[nH]cn1)C(=O)N[C@H](CCCNC(=N)N)C(=O)N[C@H](CC(C)C)C(=O)N[C@@H](C(=O)N[C@@H](C(=O)NCC(N)=O)[C@H](C)O)C(C)C)[C@H](C)CC)[C@H](C)O)C(C)C)C(C)C [D-Piscidin 1 G13K] | – | – | – | – | – | – | – | – | – | – | – | – | – | – | – | – | – | – | – | 3.9 fold | –
4 | CC[C@@H](C)[C@@H](NC(=O)[C@@H](Cc1c[nH]cn1)NC(=O)[C@@H](Cc1c[nH]cn1)NC(=O)[C@@H](Cc1ccccc1)NC(=O)[C@H](N)Cc1ccccc1)C(=O)N[C@H](Cc1ccccc1)C(=O)N[C@H](CCCNC(=N)N)C(=O)NCC(=O)N[C@H](CCCCN)C(=O)N[C@@H](C(=O)N[C@H](Cc1c[nH]cn1)C(=O)N[C@@H](C(=O)NCC(=O)N[C@H](CCCCN)C(=O)N[C@@H](C(=O)N[C@@H](C(=O)N[C@H](Cc1c[nH]cn1)C(=O)N[C@H](CCCNC(=N)N)C(=O)N[C@H](CC(C)C)C(=O)N[C@@H](C(=O)N[C@@H](C(=O)NCC(N)=O)[C@H](C)O)C(C)C)[C@H](C)CC)[C@H](C)O)C(C)C)C(C)C [D-Piscidin 1 I9K] | 96.7 µM (≈ 250 µg/mL) | 387 µM (≈ 1000 µg/mL) | 96.7 µM (≈ 250 µg/mL) | 12.1 µM (≈ 31.3 µg/mL) | 96.7 µM (≈ 250 µg/mL) | 773 µM (≈ 2000 µg/mL) | 3.0 µM (≈ 7.76 µg/mL) | 773 µM (≈ 2000 µg/mL) | 96.7 µM (≈ 250 µg/mL) | 193 µM (≈ 499 µg/mL) | 193 µM (≈ 499 µg/mL) | 387 µM (≈ 1000 µg/mL) | 193 µM (≈ 499 µg/mL) | 387 µM (≈ 1000 µg/mL) | 193 µM (≈ 499 µg/mL) | 3.0 µM (≈ 7.76 µg/mL) | 773 µM (≈ 2000 µg/mL) | 773 µM (≈ 2000 µg/mL) | 773 µM (≈ 2000 µg/mL) | 54 fold | MIC ([2]; MSSA strain M22312): 773 µM (≈ 2000 µg/mL); MIC ([2]; MSSA strain M22315): 773 µM (≈ 2000 µg/mL); MIC GM, MSSA [2]: 273 µM (≈ 706 µg/mL); % hemolysis (human red blood cells; 1000 μg/mL (387 μM) for 1 hour): 32%; activity against human red blood cells (human red blood cells; 18 hours incubation): inactive
5 | CSCC[C@@H](NC(=O)[C@@H](Cc1c[nH]c2ccccc12)NC(=O)[C@@H](CC(C)C)NC(=O)[C@@H](C)N)C(=O)N[C@@H](C(=O)N[C@H](CC(C)C)C(=O)N[C@H](CC(C)C)C(=O)N[C@H](CCCCN)C(=O)N[C@H](CCCCN)C(=O)N[C@@H](C(=O)N[C@H](CC(C)C)C(=O)N[C@H](CCCCN)C(=O)N[C@H](C)C(=O)N[C@H](C)C(=O)N[C@H](C)C(=O)N[C@H](CCCCN)C(=O)N[C@H](C)C(=O)N[C@H](CC(C)C)C(=O)N[C@H](CC(N)=O)C(=O)N[C@H](C)C(=O)N[C@@H](C(=O)N[C@H](CC(C)C)C(=O)N[C@@H](C(=O)NCC(=O)N[C@H](C)C(=O)N[C@H](CC(N)=O)C(=O)N[C@H](C)C(N)=O)C(C)C)C(C)C)C(C)C)[C@H](C)O [D-Dermaseptin S4, reference compound] | 5.6 µM (≈ 15.6 µg/mL) | 2.8 µM (≈ 7.78 µg/mL) | 5.6 µM (≈ 15.6 µg/mL) | 5.6 µM (≈ 15.6 µg/mL) | 5.6 µM (≈ 15.6 µg/mL) | 5.6 µM (≈ 15.6 µg/mL) | 5.6 µM (≈ 15.6 µg/mL) | 11.3 µM (≈ 31.4 µg/mL) | 5.6 µM (≈ 15.6 µg/mL) | 2.8 µM (≈ 7.78 µg/mL) | 5.6 µM (≈ 15.6 µg/mL) | 5.6 µM (≈ 15.6 µg/mL) | 5.6 µM (≈ 15.6 µg/mL) | 2.8 µM (≈ 7.78 µg/mL) | 5.6 µM (≈ 15.6 µg/mL) | 5.6 µM (≈ 15.6 µg/mL) | 11.3 µM (≈ 31.4 µg/mL) | 5.6 µM (≈ 15.6 µg/mL) | 5.6 µM (≈ 15.6 µg/mL) | 1.0 fold | MIC ([2]; MSSA strain M22312): 11.3 µM (≈ 31.4 µg/mL); MIC ([2]; MSSA strain M22315): 11.3 µM (≈ 31.4 µg/mL); MIC GM, MSSA [2]: 6.0 µM (≈ 16.7 µg/mL)
6 | CC[C@@H](C)[C@@H](NC(=O)[C@H]1CCCN1C(=O)[C@@H](CCCNC(=N)N)NC(=O)[C@@H](Cc1ccccc1)NC(=O)[C@H](NC(=O)[C@@H](Cc1c[nH]cn1)NC(=O)[C@@H](Cc1c[nH]cn1)NC(=O)[C@@H](Cc1ccccc1)NC(=O)[C@H](N)Cc1ccccc1)[C@H](C)CC)C(=O)N[C@@H](C(=O)N[C@H](Cc1c[nH]cn1)C(=O)N[C@@H](C(=O)NCC(=O)N[C@H](CCCCN)C(=O)N[C@@H](C(=O)N[C@@H](C(=O)N[C@H](Cc1c[nH]cn1)C(=O)N[C@H](CCCNC(=N)N)C(=O)N[C@H](CC(C)C)C(=O)N[C@@H](C(=O)N[C@@H](C(=O)NCC(N)=O)[C@H](C)O)C(C)C)[C@H](C)CC)[C@H](C)O)C(C)C)C(C)C [D-Piscidin 1 G8P] | – | – | – | – | – | – | – | – | – | – | – | – | – | – | – | – | – | – | – | – | fold increase in hemolytic activity from 1 to 18 hours (human red blood cells; HC50 1 hour vs 18 hours at 37° C.): 7 fold
